Measurements from patent publication US7223791B2, “Function regulator for retinoid relative receptor” (Takeda Pharmaceutical Company Limited, priority 2001, dated 2007).

Legend:
[1] = target: T1, PPARγ-RXRα heterodimer (Homo sapiens, UniProt P19793+P37231); assay: PPARγ-RXRα heterodimer ligand activity (luciferase reporter, PPARγ:RXRα:4ERPP/CHO-K1 cells); format: cell-based; settings: 48 hrs, concentration for 50% of the maximum fold induction
T1 construct: 1.4 kb DNA fragment containing PPARγ gene was recovered from the gel; 1.4 kb DNA fragment containing RXRα gene was recovered from the gel; expressed in transfected cells
T1 sequence (P37231 1-477 isoform P37231-2): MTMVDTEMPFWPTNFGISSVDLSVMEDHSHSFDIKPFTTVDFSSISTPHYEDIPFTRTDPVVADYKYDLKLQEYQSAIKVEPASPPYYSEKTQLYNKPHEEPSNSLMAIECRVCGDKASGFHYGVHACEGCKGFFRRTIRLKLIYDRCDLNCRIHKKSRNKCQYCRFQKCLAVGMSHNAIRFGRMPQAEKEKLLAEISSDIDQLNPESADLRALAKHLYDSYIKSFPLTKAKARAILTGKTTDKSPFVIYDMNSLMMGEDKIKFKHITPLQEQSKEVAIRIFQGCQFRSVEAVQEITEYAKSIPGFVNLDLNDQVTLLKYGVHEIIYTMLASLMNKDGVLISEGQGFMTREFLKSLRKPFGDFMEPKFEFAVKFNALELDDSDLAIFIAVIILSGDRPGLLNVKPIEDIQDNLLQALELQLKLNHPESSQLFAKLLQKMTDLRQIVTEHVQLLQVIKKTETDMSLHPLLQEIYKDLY
T1 sequence (P19793 1-462): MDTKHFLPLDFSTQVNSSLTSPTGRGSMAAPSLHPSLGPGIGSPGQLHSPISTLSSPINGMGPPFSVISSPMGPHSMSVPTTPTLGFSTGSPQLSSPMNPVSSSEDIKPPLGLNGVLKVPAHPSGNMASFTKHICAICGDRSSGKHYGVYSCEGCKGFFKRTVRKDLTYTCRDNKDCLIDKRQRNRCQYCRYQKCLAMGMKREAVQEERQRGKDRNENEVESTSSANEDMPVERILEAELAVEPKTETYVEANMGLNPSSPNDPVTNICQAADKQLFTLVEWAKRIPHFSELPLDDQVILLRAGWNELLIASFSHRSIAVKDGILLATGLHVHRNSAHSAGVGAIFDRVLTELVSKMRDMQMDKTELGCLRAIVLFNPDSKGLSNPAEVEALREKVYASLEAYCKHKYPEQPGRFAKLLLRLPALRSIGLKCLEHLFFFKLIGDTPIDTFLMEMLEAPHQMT
Description: (PPARγ-RXRα Heterodimer Ligand Activity)
PPARγ: RXRα: 4ERPP/CHO-K1 cells obtained in the following Reference Example 5 were cultured in HAM F12 medium (manufactured by NISSUI SEIYAKU) containing 10% fetal bovine serum [manufactured by Life Technologies, Inc., USA], seeded in a 96-well white plate [manufactured by Corning Coster Corporation, USA] at the density of 2×10^4 cells/well and cultured in a CO2 gas incubator at 37° C. overnight.
After washing the 96-well white plate with PBS (Phosphate-buffered saline), 90 μl of HAM F12 medium containing 0.1% fatty acid-free bovine serum albumin (BSA) and 10 μl of test compound were added, and the cells were cultured in a CO2 gas incubator at 37° C. for 48 hrs. The medium was removed and 40 μl of PicaGene 7.5 (manufactured by Wako Pure Chemical Industries, Ltd.) was added. After stirring, the luciferase activity was determined using Lumistar [manufactured by BMG Labtechnologies GmbH, Germany].
The fold induction was calculated from the luciferase activity of each test compound when the luciferase activity of the test compound non-administration group is taken as 1. The values of the test compound concentration and the fold induction were analyzed using PRISM 2.01 (produced by GraphPad Software Inc. USA) to calculate the EC50 values, the concentration of a test compound for 50% of the maximum fold induction. The results are shown in [Table 2].
Introduction of Human PPARγ- and RXRα-Expression Plasmid and Reporter Plasmid into CHO-K1 Cell as Well as Establishment of Expressed Cell
A CHO-K1 cell cultured in a tissue culture flask (750 ml) [produced by Corning Costar Corporation, USA] containing HAM F12 medium (produced by NISSUI SEIYAKU) supplemented with 10% fetal bovine serum [produced by Life Technologies, Inc., USA] was scraped by treating with 0.5 g/L trypsin-0.2 g/L EDTA (ethylenediamine tetraacetate) [produced by Life Technologies, Inc., USA], and then the cell was washed with PBS (Phosphate-buffered saline)[produced by Life Technologies, Inc., USA], centrifuged (1000 rpm, 5 minutes) and suspended in PBS. Subsequently, DNA was introduced into the cell under the conditions shown below using GENE PULSER (produced by Bio-Rad Laboratories, USA).
Namely, to a cuvette having a 0.4 cm gap were added 8×10^6 cells and 10 μg of plasmid pVgRXR2-hPPARγ obtained in Reference Example 3 and 10 μg of reporter plasmid pGL3-4ERPP-TK neo obtained in Reference Example 4, which was subjected to electroporation at the voltage of 0.25 kV under the capacitance of 960 μF. Subsequently, the cell was transferred into a HAM F12 medium containing 10% fetal bovine serum and cultured for 24 hours, and then the cell was scraped again and centrifuged, and then suspended in HAM F12 medium containing 10% fetal bovine serum supplemented with 500 μg/ml of Geneticin [produced by Life Technologies, Inc., USA] and 250 μg/ml of Zeocin (produced by Invitrogen, USA). The obtained suspension was diluted to the density of 10^4 cells/ml and inoculated in a 96-well plate [produced by Corning Costar Corporation, USA], which was cultured in a CO2 gas incubator at 37° C., whereby obtaining a Geneticin- and Zeocin-resistant transformant.
Subsequently, after the transformant cell line thus obtained was cultured in a 24-well plate [produced by Corning Costar Corporation, USA], a cell line in which the luciferase was expressed and induced, i.e., PPARγ: RXRα: 4ERPP/CHO-K1 cell was selected by the addition of 10 μM pioglitazone hydrochloride.

EC50 [1]	melting point	Structure (SMILES)
23 nM	284 to 285 °C	O=C(O)c1ccc(-c2ccc(-c3ccc(C(F)(F)F)cc3)s2)cc1 [Example 16, 4-[5-(4-trifluoromethylphenyl)-2-thienyl]benzoic acid]
2.3 nM	297 to 298 °C	O=C(O)c1ccc(-c2cc(-c3ccccc3)on2)cc1 [Example 28, 4-(5-phenyl-3-isoxazolyl)benzoic acid]
1.2 nM	276 to 277 °C	O=C(O)c1cccc(-c2cc(-c3ccc(C(F)(F)F)cc3)on2)c1 [Example 34, 3-[5-(4-trifluoromethylphenyl)-3-isoxazolyl]benzoic acid]
3.8 nM	> 300 °C	O=C(O)c1ccc(-c2cc(-c3ccc(C(F)(F)F)cc3)on2)cc1 [Example 35, 4-[5-(4-trifluoromethylphenyl)-3-isoxazolyl]benzoic acid]
–	> 300 °C	Nc1cc(C(=O)O)ccc1-c1nnc(-c2ccc(C(F)(F)F)cc2)o1 [Example 71, 3-amino-4-[5-(4-trifluoromethylphenyl)-1,3,4-oxadiazol-2-yl]benzoic acid]
–	266 to 268 °C	CC(C)(C)c1ccc(-c2nnc(-c3ccc(C(=O)O)cc3N)o2)cc1 [Example 72, 3-amino-4-[5-(4-t-butylphenyl)-1,3,4-oxadiazol-2-yl]benzoic acid]
–	263 to 264 °C	NC(=O)c1ccc(-c2ccc(-c3ccc(C(F)(F)F)cc3)o2)cc1 [Example 73, 4-[5-(4-trifluoromethylphenyl)-2-furyl]benzamide]
–	195 to 196 °C	COC(=O)c1ccc(-c2nc(-c3ccc(C(C)(C)C)cc3)no2)c(N)c1 [Example 74, methyl 3-amino-4-[3-(4-t-butylphenyl)-1,2,4-oxadiazol-5-yl]benzoate]
–	227 to 228 °C	COC(=O)c1ccc(-c2nc(-c3ccc(Cl)cc3)no2)c(N)c1 [Example 75, methyl 3-amino-4-[3-(4-chlorophenyl)-1,2,4-oxadiazol-5-yl]benzoate]
–	292 to 293 °C	O=C(O)c1ccc(-c2nc(-c3cccc(Oc4ccccc4)c3)no2)cc1 [Example 79, 4-[3-(3-phenoxyphenyl)-1,2,4-oxadiazol-5-yl]benzoic acid]
–	129 to 130 °C	O=Cc1cccc(-c2nnc(-c3ccc(C(F)(F)F)cc3)o2)c1 [Example 80, 3-[5-(4-trifluoromethylphenyl)-1,3,4-oxadiazol-2-yl]benzaldehyde]
–	189 to 190 °C	O=Cc1ccc(-c2nnc(-c3ccccc3[N+](=O)[O-])o2)cc1 [Example 81, 4-[5-(2-nitrophenyl)-1,3,4-oxadiazol-2-yl]benzaldehyde]

Second part, the compound before the results:

Structure (SMILES)	EC50 [1]	melting point
CCOC(=O)c1ccc(-c2ccc(-c3ccc(C(F)(F)F)cc3)o2)cc1 [Example 6, ethyl 4-[5-(4-triflubromethylphenyl)-2-furyl]benzoate]	3.6 nM	–
Cn1c(-c2ccc(C(=O)O)cc2)ccc1-c1ccc(C(F)(F)F)cc1 [Example 7, 4-[1-methyl-5-(4-trifluoromethylphenyl)-2-pyrrolyl]benzoic acid]	7.6 nM	260 to 261 °C
O=C(O)c1cccc(-c2ccc(-c3ccc(C(F)(F)F)cc3)o2)c1 [Example 9, 3-[5-(4-trifluoromethylphenyl)-2-furyl]benzoic acid]	54 nM	271 to 272 °C
O=C(O)c1ccc(-c2cc(-c3ccc(C(F)(F)F)cc3)no2)cc1 [Example 26, 4-[3-(4-trifluorophenyl)-5-isoxazolyl]benzoic acid]	23 nM	–
O=C(O)c1cccc(-c2cc(-c3ccccc3)on2)c1 [Example 27, 3-(5-phenyl-3-isoxazolyl)benzoic acid]	2.1 nM	250 to 251 °C
O=C(O)c1cccc(-c2cc(-c3ccc(Cl)cc3)on2)c1 [Example 29, 3-[5-(4-chlorophenyl)-3-isoxazolyl]benzoic acid]	0.59 nM	298 to 299 °C
O=C(O)c1ccc(-c2cc(-c3ccc(Cl)cc3)on2)cc1 [Example 30, 4-[5-(4-chlorophenyl)-3-isoxazolyl]benzoic acid]	6 nM	> 300 °C
O=C(O)c1cccc(-c2cc(-c3ccc(C(F)(F)F)cc3)no2)c1 [Example 33, 3-[3-(4-trifluoromethylphenyl)-5-isoxazolyl]benzoic acid]	2.7 nM	272 to 273 °C
O=C(O)c1ccc(-c2noc(-c3ccc(C(F)(F)F)cc3)n2)cc1 [Example 44, 4-[5-(4-trifluoromethylphenyl)-1,2,4-oxadiazol-3-yl]benzoic acid]	68 nM	286 to 287 °C
COC(=O)c1ccc(-c2nnc(-c3ccc(C(F)(F)F)cc3)o2)c(N)c1 [Example 76, methyl 3-amino-4-[5-(4-trifluoromethylphenyl)-1,3,4-oxadiazol-2-yl]benzoate]	–	237 to 238 °C
O=Cc1ccc(-c2noc(-c3ccc(C(F)(F)F)cc3)n2)cc1 [Example 77, 4-[5-(4-trifluoromethylphenyl)-1,2,4-oxadiazol-3-yl]benzaldehyde]	–	145 to 146 °C
O=Cc1cccc(-c2cc(-c3ccc(C(F)(F)F)cc3)no2)c1 [Example 82, 3-[3-(4-trifluoromethylphenyl)-5-isoxazolyl]benzaldehyde]	–	151 to 152 °C
